In brackets after ≈: the same amount, converted by molar mass.
Experiments:
Test in all cases: In vitro antifungal activity (minimum inhibitory concentration)
Assay type in all cases: cell-based
[1] = test system: Aspergillus fumigatus ATCC13073; settings: read-out: Minimum Inhibitory Concentration (MIC) AF
Method: (§1) The antifungal activities of representative 1,2-dithiin compounds listed below were determined in vitro using three fungal cultures: Candida albicans ATCC10259 (CA), Cryptococcus neoformans ATCC36556 (CN), and Aspergillus fumigatus ATCC13073 (AF).
(§2) The method used to determine in vitro antifungal activity is discussed in McGinnis, M. R., Laboratory Handbook of Medical Mycology, Academic Press, New York, London, p 661 (1980); and Drouget, E.; Dupont, B.; Improvist, L.; Vivian, M. A.; and Tortorano, A. M.; "Disc Agar Diffusion and Microplate Automatized Techniques for In Vitro Evaluation of Antifungal Agents on Yeast and Sporulated Pathogenic Fungi" in In Vitro and In Vivo Evaluation of Antifungal Agents, Eds. lwata, K. and Vanden Bossche, H., Elsevier Science Publishers, New York, Oxford, p. 303 (1986).

[2] = test system: Candida albicans ATCC10259; settings: read-out: Minimum Inhibitory Concentration (MIC) CA
Method: as §1, §2

[3] = test system: Cryptococcus neoformans ATCC36556; settings: read-out: Minimum Inhibitory Concentration (MIC) CN
Method: as §1, §2

Row | Structure (SMILES) | MIC [1] [µg/mL] | MIC [2] [µg/mL] | MIC [3] [µg/mL]
1 | O=[N+]([O-])c1ccc(OCC2=CC=C(CO)SS2)nc1 [3-(hydroxymethyl)-6-[(5-nitropyridyl-2-oxy)methyl]-1,2-dithiin] | 0.4 (≈ 1.34 µM) | 0.2 (≈ 0.67 µM) | 0.1 (≈ 0.335 µM)
2 | COC(=O)c1ccccc1OCC1=CC=C(CO)SS1 [3-(Hydroxymethyl)-6-[methyloxy[methyl benzoate-2-yl]]-1,2-dithiin] | 12.5 (≈ 40.3 µM) | 6.3 (≈ 20.3 µM) | 6.3 (≈ 20.3 µM)
3 | OCC1=CC=C(COc2cc(C(F)(F)F)ccc2Cl)SS1 [3-(Hydroxymethyl)-6-[(2-chloro-5-trifluoromethyl-phenyloxy)methyl]-1,2-dithiin] | 6.3 (≈ 17.8 µM) | 1.6 (≈ 4.51 µM) | 1.6 (≈ 4.51 µM)
4 | OCC1=CC=C(COc2cccc(O)c2)SS1 [3-(Hydroxymethyl)-6-[(3-hydroxyphenyloxy)methyl]-1,2-dithiin] | > 100 | 50 (≈ 186 µM) | 100 (≈ 373 µM)
5 | O=c1ccccn1CC1=CC=C(CO)SS1 [3-(Hydroxymethyl)-6-[(pyrid-2-one-1-yl)methyl]-1,2-dithiin] | > 100 | > 100 | 12.5 (≈ 49.3 µM)
6 | CC1(C)OCC(COCC2=CC=C(COCC(O)CO)SS2)O1 (stereo not drawn) [3-[[(2,2-Dimethyl-1,3-dioxolan-4-yl)methyloxy]methyl]-6-[methyloxy(2,3-dihydroxypropane-1-yl)]-1,2-dithiin] | > 100 | > 100 | > 100
7 | OCC1=CC=C(COCC(O)CO)SS1 (stereo not drawn) [3-(Hydroxymethyl)-6-[methyloxy(2,3-dihydroxypropane-1-yl)]-1,2-dithiin] | > 100 | > 100 | > 100
8 | O=C(OCC1=CC=C(CO)SS1)c1ccccc1 [3-(Benzoyloxymethyl)-6-(hydroxymethyl)-1,2-dithiin] | 3.1 (≈ 11.1 µM) | 6.3 (≈ 22.5 µM) | 3.1 (≈ 11.1 µM)
9 | C#Cc1cccc(OCC2=CC=C(CO)SS2)c1 [3-(Hydroxymethyl)-6-[(3-ethynylphenyloxy)methyl]-1,2-dithiin] | 6.3 (≈ 22.8 µM) | 1.6 (≈ 5.79 µM) | 1.6 (≈ 5.79 µM)
10 | COC(=O)c1cccc(OCC2=CC=C(CO)SS2)c1 [3-(Hydroxymethyl)-6-[methyloxy[methyl benzoate-3-yl]]-1,2-dithiin] | 25 (≈ 80.5 µM) | 3.1 (≈ 9.99 µM) | 6.3 (≈ 20.3 µM)
11 | CC1(C)OCC(COCC2=CC=C(CO)SS2)O1 (stereo not drawn) [3-(Hydroxymethyl)-6-[[(2,2-dimethyl-1,3-dioxolan-4-yl)methyloxy]methyl]-1,2-dithiin] | > 100 | > 100 | > 100
12 | CN(C)c1cccc(OCC2=CC=C(CO)SS2)c1 [3-(Hydroxymethyl)-6-[[3-(N,N-dimethylamino)phenyloxy]methyl]-1,2-dithiin] | 100 (≈ 338 µM) | > 50 | 50 (≈ 169 µM)
13 | OCC1=CC=C(COc2cccnc2)SS1 [3-(Hydroxymethyl)-6-[(pyridyl-3-oxy)methyl]-1,2-dithiin] | 3.1 (≈ 12.2 µM) | 3.1 (≈ 12.2 µM) | 1.6 (≈ 6.32 µM)
14 | CC1(C)OCC(COCC2=CC=C(COCC3COC(C)(C)O3)SS2)O1 (stereo not drawn) [3,6-Bis[[(2,2-dimethyl-1,3-dioxolan-4-yl)methyloxy]methyl]-1,2-dithiin] | > 100 | > 100 | > 100
15 | OCC1=CC=C(COc2ccccn2)SS1 [3-(Hydroxymethyl)-6-[(pyridyl-2-oxy)methyl]-1,2-dithiin] | 3.1 (≈ 12.2 µM) | 3.1 (≈ 12.2 µM) | 3.1 (≈ 12.2 µM)
16 | OCC1=CC=C(COc2ccc(-n3ccnc3)cc2)SS1 [3-(hydroxymethyl)-6-[[4-(imidazol-1-yl)phenyloxy]methyl]-1,2-dithiin] | 100 (≈ 314 µM) | 12.5 (≈ 39.3 µM) | 100 (≈ 314 µM)
17 | OCC1=CC=C(COc2ccccc2)SS1 [3-(Hydroxymethyl)-6-[(phenyloxy)methyl]-1,2-dithiin] | 25 (≈ 99.1 µM) | 25 (≈ 99.1 µM) | 12.5 (≈ 49.5 µM)
18 | OCC1=CC=C(CSc2nnnn2-c2ccc(O)cc2)SS1 [3-(Hydroxymethyl)-6-[methylthio-[1-(4-hydroxyphenyl)tetrazol-5-yl]]-1,2-dithiin] | 12.5 (≈ 35.5 µM) | 25 (≈ 70.9 µM) | 6.3 (≈ 17.9 µM)
19 | O=c1ccc(O)nn1CC1=CC=C(CO)SS1 [3-(Hydroxymethyl)-6-[(3-hydroxypyridazin-6-one-1-yl)methyl]-1,2-dithiin] | > 100 | > 100 | > 100
20 | COC(=O)c1ccc(OCC2=CC=C(CO)SS2)cc1 [3-(hydroxymethyl)-6-[methyloxy[methyl benzoate-4-yl]]-1,2-dithiin] | 12.5 (≈ 40.3 µM) | 3.1 (≈ 9.99 µM) | 3.1 (≈ 9.99 µM)
21 | OCC1=CC=C(COc2nc3ccccc3nc2O)SS1 [3-(Hydroxymethyl)-6-[methyloxy[3-hydroxyquinoxalin-2-yl]]-1,2-dithiin] | 100 (≈ 312 µM) | 50 (≈ 156 µM) | 25 (≈ 78 µM)
22 | OCC1=CC=C(COc2ccccc2C(F)(F)F)SS1 [3-(Hydroxymethyl)-6-[(2-trifluoromethylphenyloxy)methyl]-1,2-dithiin] | 50 (≈ 156 µM) | 25 (≈ 78 µM) | 6.3 (≈ 19.7 µM)
23 | O=c1ccc([N+](=O)[O-])cn1CC1=CC=C(CO)SS1 [3-(Hydroxymethyl)-6-[(5-nitropyrid-2-one-1-yl)methyl]-1,2-dithiin] | > 100 | > 100 | 100 (≈ 335 µM)
24 | OCC1=CC=C(COc2ccccc2F)SS1 [3-(Hydroxymethyl)-6-[(2-fluorophenyloxy)methyl]-1,2-dithiin] | 3.1 (≈ 11.5 µM) | 3.1 (≈ 11.5 µM) | 1.6 (≈ 5.92 µM)
25 | OCC1=CC=C(COc2ccc(O)nn2)SS1 [3-(Hydroxymethyl)-6-[(3-hydroxypyridazine-6-oxy)methyl]-1,2-dithiin] | > 100 | > 100 | > 100

— patent publication US5648354A, “1,2-dithiins having antifungal activity” (Shaman Pharmaceuticals, Inc., priority 1995, dated 1997)
